Test results taken from BindingDB's records for PubMed 1328199 (University of Chicago, 1992).
Bridge positions count the residues as written; N and C are the ends. Square brackets hold non-standard residues; d marks the D form. Peptide text beside a SMILES is read from it. * marks the point of attachment. X1 = CC(O)[C@H](CO)N*

Key:
[1] = biological target: Somatostatin receptor type 3 (Mus musculus, UniProt P30935)
[2] = biological target: Somatostatin receptor type 2 (Mus musculus, UniProt P30875)
Chain of Somatostatin receptor type 2 (P30875 whole entry): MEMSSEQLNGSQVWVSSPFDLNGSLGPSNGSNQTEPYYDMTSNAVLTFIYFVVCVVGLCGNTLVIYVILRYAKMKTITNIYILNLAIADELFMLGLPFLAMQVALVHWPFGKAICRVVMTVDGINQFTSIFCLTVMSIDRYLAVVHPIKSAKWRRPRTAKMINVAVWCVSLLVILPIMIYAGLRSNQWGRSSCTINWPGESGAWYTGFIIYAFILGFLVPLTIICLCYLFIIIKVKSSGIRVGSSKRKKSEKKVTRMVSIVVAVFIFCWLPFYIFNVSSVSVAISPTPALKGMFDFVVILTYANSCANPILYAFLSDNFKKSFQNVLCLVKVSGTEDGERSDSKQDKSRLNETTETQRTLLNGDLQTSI

Chain of Somatostatin receptor type 3 (P30935 whole entry): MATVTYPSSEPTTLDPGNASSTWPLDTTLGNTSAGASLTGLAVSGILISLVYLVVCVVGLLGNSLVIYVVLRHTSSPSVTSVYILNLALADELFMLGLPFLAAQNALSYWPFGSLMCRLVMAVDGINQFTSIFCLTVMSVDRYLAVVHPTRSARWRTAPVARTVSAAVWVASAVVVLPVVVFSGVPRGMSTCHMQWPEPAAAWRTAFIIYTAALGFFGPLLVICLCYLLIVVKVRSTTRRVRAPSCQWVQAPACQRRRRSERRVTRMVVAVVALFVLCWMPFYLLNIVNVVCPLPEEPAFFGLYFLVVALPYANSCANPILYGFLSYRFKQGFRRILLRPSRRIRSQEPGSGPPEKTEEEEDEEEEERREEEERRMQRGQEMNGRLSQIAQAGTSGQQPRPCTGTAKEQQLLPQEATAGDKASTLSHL

Compound	Ki [1] [nM]	Ki [2] [nM]
CC(O)[C@H](CO)NC(=O)[C@@H]1CSSC[C@H](NC(=O)[C@H](N)Cc2ccccc2)C(=O)N[C@@H](Cc2ccccc2)C(=O)N[C@H](Cc2c[nH]c3ccccc23)C(=O)N[C@@H](CCCCN)C(=O)N[C@@H]([C@@H](C)O)C(=O)N1 (some centres undefined) (H-[dF]CF[dW]KTC-X1; disulfide 2-7)	150	0.5
CC(C)[C@@H]1NC(=O)[C@H](CCCCN)NC(=O)[C@@H](Cc2c[nH]c3ccccc23)NC(=O)[C@H](Cc2ccc(O)cc2)NC(=O)[C@H](C)N(C)C(=O)[C@H](Cc2ccccc2)NC1=O [CAS_3086456]	268	0.07
